pEC50: −log10 of the molar value.
Target: T1, human TLR7 (Homo sapiens, UniProt Q9NYK1)
T1 sequence (Q9NYK1 27-1049): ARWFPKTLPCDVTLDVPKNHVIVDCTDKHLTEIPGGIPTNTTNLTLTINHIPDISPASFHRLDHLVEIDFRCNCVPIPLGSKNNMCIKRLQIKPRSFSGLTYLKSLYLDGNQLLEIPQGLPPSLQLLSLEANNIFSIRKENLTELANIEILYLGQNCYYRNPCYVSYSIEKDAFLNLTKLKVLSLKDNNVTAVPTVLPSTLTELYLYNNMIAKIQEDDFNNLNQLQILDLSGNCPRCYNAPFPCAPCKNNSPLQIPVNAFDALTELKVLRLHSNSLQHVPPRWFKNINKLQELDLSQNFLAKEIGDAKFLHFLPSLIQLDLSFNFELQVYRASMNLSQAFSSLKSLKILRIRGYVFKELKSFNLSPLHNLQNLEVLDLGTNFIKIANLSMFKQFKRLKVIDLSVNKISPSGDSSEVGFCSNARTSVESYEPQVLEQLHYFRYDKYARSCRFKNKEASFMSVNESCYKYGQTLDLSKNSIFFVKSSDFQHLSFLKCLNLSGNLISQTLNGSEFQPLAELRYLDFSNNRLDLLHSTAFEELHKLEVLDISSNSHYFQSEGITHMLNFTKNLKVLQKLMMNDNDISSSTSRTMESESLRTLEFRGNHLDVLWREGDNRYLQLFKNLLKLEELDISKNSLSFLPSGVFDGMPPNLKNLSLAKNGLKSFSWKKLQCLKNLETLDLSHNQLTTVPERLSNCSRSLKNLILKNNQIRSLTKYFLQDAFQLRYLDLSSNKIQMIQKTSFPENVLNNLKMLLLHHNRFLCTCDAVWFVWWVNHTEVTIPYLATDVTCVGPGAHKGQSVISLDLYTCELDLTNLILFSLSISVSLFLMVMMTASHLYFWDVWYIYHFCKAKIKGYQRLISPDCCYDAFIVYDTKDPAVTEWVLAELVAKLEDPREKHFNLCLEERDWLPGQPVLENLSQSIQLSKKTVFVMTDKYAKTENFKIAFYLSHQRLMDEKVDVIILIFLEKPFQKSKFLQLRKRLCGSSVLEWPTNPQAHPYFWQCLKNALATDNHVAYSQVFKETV
Experiment: HEK293-Blue hTLR7 reporter assay (QUANTI-BLUE, SEAP readout)
Type: cell-based
Set-up: host or cells: HEK293 (HEK-Blue-hTLR7)
Settings: HEK-Blue-hTLR7 cells, QUANTI-BLUE assay (A1-A76), 24 hrs
Method: HEK293-Blue hTLR7 Reporter Assay:
HEK-Blue-hTLR7 cell line (Invivogen, Cat. No. hkb-htlr7) was designed so that the expression of the secreted embryonic alkaline phosphatase (SEAP) was induced by activating NF-κ and AP-1 via stimulating human TLR7 with TLR7 agonists.
HEK-Blue-hTLR7 cells were seeded at a density of 4×10^4 cells/well in a volume of 180 μL in a 96-well plate in DMEM (Cat. No. 11965-092) supplemented with 10% (v/v) heat-inactivated fetal bovine serum (FBS) (Gibco, 10099-1441), 100 U/ml penicillin and 100 μg/ml streptomycin (Gibco, 15140122) containing […], […] and 10% (v/v) heat-inactivated fetal bovine serum. The cells were settled for 5 hrs, then treated with increasing amounts of tested compounds at 37° C. for 24 hrs. Then 20 μL of the supernatant from each well was incubated with 180 uL Quanti-blue substrate solution at 37° C. for 10-30 mins before the activity of the SEAP was determined at 620-655 nm using a spectrophotometer. The EC50 value for each compound was calculated with GraphPad Prism software using the sigmoidal dose-response function.

Point of comparison: `CCCCOc1nc(N)c2ncc(Cc3ccc(OCCCN(C)C)c(F)c3)n2n1` [Compound A35, 2-butoxy-7-(4-(3-(dimethylamino)propoxy)-3-fluorobenzyl)imidazo[2,1-f][1,2,4]triazin-4-amine], pEC50 5.68. Against it:
- CCCCOc1nc(N)c2ncc(Cc3ccc(CN4CCCCC4)cc3)n2n1 [Compound A5, 2-butoxy-7-(4-(piperidin-1-ylmethyl)benzyl)imidazo[2,1-f][1,2,4]triazin-4-amine] — 0.22 log units higher, 5.90
- CCCCOc1nc(N)c2ncc(Cc3ccc(OCCCN4CCCC4)cc3)n2n1 [Compound A28, 2-butoxy-7-(4-(3-(pyrrolidin-1-yl)propoxy)benzyl)imidazo[2,1-f][1,2,4]triazin-4-amine] — within 0.2 log units, 5.75
- CCCCOc1nc(N)c2ncc(Cc3ccc(CN4CCCC4)cc3F)n2n1 [Compound A20, 2-butoxy-7-(2-fluoro-4-(pyrrolidin-1-ylmethyl)benzyl)imidazo[2,1-f][1,2,4]triazin-4-amine] — within 0.2 log units, 5.76
- Nc1nc(N)c2ncc(Cc3ccc(CN4CCCC4)cc3)n2n1 [Compound A52, 7-(4-(pyrrolidin-1-ylmethyl)benzyl)imidazo[2,1-f] [1,2,4]triazine-2,4-diamine] — lower, < 5.00
- CCCCOc1nc(N)c2ncc(C(O)c3ccccn3)n2n1 (stereo not shown) [Compound A74, (4-amino-2-butoxyimidazo[2,1-f][1,2,4]triazin-7-yl)(pyridin-2-yl)methanol] — lower, < 5.00
- CCCCOc1nc(N)c2ncc(Cc3ccccc3CN3CCCC3)n2n1 [Compound A19, 2-butoxy-7-(2-(pyrrolidin-1-ylmethyl)benzyl)imidazo[2,1-f][1,2,4]triazin-4-amine] — lower, < 5.00
- CCCCOc1nc(N)c2ncc(Cc3ccc(OCC(C)(C)CN(C)C)nc3)n2n1 [Compound A53, 2-butoxy-7-((6-(3-(dimethylamino)-2,2-dimethylpropoxy)pyridin-3-yl)methyl)imidazo[2,1-f][1,2,4]triazin-4-amine] — within 0.2 log units, 5.84
- Nc1nc(O)nn2c(Cc3ccc(CN4CCCC4)cc3)cnc12 [Compound A65, 4-amino-7-(4-(pyrrolidin-1-ylmethyl)benzyl)imidazo[2,1-f][1,2,4]triazin-2-ol] — lower, < 5.00
- CCCCOc1nc(N)c2ncc(Cc3ccc(CN4CCN(CCCO)CC4)cc3)n2n1 [Compound A71, 3-(4-(4-((4-amino-2-butoxyimidazo[2,1-f][1,2,4]triazin-7-yl)methyl)benzyl)piperazin-1-yl)propan-1-ol] — 0.25 log units higher, 5.93
- CCCCOc1nc(N)c2ncc(C(O)c3ncccc3OC)n2n1 (stereo not shown) [Compound A56, (4-amino-2-butoxyimidazo[2,1-f][1,2,4]triazin-7-yl)(3-methoxypyridin-2-yl)methanol] — lower, < 5.00
- CCCCOc1nc(N)c2ncc(Cc3ccc(CN4C[C@@H]5C[C@H]4CN5)cc3)n2n1 [Compound A41, 7-(4-(((1S,4S)-2,5-diazabicyclo[2.2.1]heptan-2-yl)methyl)benzyl)-2-butoxyimidazo[2,1-f][1,2,4]triazin-4-amine] — within 0.2 log units, 5.80
- CCCCOc1nc(N)c2ncc(Cc3ccc(OCCCN(CC)CC)cc3)n2n1 [Compound A29, 2-butoxy-7-(4-(3-(diethylamino)propoxy)benzyl)imidazo[2,1-f][1,2,4]triazin-4-amine] — within 0.2 log units, 5.58
- CCCCOc1nc(N)c2ncc(Cc3ccc(N(C)CCN(C)C)nc3)n2n1 [Compound A4, N^1-(5-((4-amino-2-butoxyimidazo[2,1-f][1,2,4]triazin-7-yl)methyl)pyridin-2-yl)-N^1,N^2,N^2-trimethylethane-1,2-diamine] — within 0.2 log units, 5.73
- CCCCOc1nc(N)c2ncc(Cc3ccc(CC4CCNCC4)cc3)n2n1 [Compound A33, 2-butoxy-7-(4-(piperidin-4-ylmethyl)benzyl)imidazo[2,1-f][1,2,4]triazin-4-amine] — 0.30 log units higher, 5.98

Same assay, conditions: HEK-Blue-hTLR7 cells, QUANTI-BLUE assay (C1-C6), 24 hrs

For `CCCCOc1nc(N)c2[nH]cc(Cc3cnc(N4CCNCC4)c(C)c3)c2n1` [Compound C6, 2-butoxy-7-((5-methyl-6-(piperazin-1-yl)pyridin-3-yl)methyl)-5H-pyrrolo [3,2-d]pyrimidin-4-amine], the pEC50 was 5.97.

From patent publication US12281119B2, “Imidazo[2,1-f][1,2,4]triazin-4-amine derivatives as TLR7 agonist” (BEIGENE, LTD., priority 2019, dated 2025)
